Assay results published in article PMC8863579, “Effects of pharmacological inhibition of the sodium‐dependent phosphate cotransporter 2b (NPT2b) on intestinal phosphate absorption in mouse and rat models” (Pharmacology Research & Perspectives, 2022).

How the values were obtained:
rat NPT2b = target: T1, rat NPT2b (Rattus norvegicus, UniProt Q9JJ09); experiment: 33P-phosphate uptake in CHO cells expressing rat NPT2b; format: cell-based; details: geometric mean; 2.5 µM phosphate, 60 min, room temperature
T1 construct: Full-Length cDNA Cloning and Generation of Cell Lines Over-Expressing Human, Mouse, and Rat NPT2b; host or cells: CHO-K1 / T-REx CHO, pcDNA5/TO, tetracycline-induced
T1 sequence (Q9JJ09 1-695): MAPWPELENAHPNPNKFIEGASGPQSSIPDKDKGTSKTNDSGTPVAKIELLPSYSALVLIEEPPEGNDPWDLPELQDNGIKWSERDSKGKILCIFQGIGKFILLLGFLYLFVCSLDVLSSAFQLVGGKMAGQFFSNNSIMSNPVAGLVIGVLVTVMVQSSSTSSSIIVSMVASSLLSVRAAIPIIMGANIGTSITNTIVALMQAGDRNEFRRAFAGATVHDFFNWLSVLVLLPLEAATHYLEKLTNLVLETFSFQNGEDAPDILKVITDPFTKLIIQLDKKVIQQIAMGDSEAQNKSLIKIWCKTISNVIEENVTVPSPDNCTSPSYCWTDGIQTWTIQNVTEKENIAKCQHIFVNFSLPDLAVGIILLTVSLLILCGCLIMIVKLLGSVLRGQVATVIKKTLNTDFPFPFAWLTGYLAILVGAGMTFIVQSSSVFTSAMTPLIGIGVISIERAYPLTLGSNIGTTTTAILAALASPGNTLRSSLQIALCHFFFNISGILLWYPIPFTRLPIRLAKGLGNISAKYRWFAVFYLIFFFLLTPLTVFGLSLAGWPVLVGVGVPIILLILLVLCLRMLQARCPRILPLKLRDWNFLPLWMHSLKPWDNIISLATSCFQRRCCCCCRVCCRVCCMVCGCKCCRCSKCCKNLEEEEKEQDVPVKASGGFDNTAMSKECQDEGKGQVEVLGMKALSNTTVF
Procedure: T‐Rex™ Chinese Hamster Ovary cells (CHO; Thermo Fisher Scientific) stably expressing human, mouse, or rat NPT2b under a tetracycline‐inducible promoter were generated using standard cDNA transfection and clone selection procedures (see Supporting Information). Cells were plated in 96‐well CytoStar‐T® scintillating microplates and were incubated overnight in growth media plus 100 ng/ml of tetracycline to induce expression of NPT2b. The next day, cells were washed 3 times with 200 µl assay buffer (137 mM NaCl, 5.4 mM KCl, 2.8 mM CaCl2, 1.2 mM MgSO4, and 14 mM Tris‐HCl buffer, pH 7.5). LY3358966 serially diluted 1‐to‐3 in DMSO was added to cells with assay buffer. An equal volume of H3 ^33PO4 (PerkinElmer) in assay buffer supplemented with 5 µM potassium phosphate was then added to initiate radiolabeled phosphate (^33P‐phosphate) uptake. The final phosphate concentration was 2.5 µM and the final DMSO concentration was 1%. Following a 60‐min incubation at room temperature, an equal volume of assay buffer containing 400 µM phloretin was added to stop ^33P‐phosphate uptake. The plate was immediately read on a Wallac MicroBeta Trilux liquid scintillation counter. Percent inhibition at all concentrations tested was calculated, and IC50 values were then determined using a 4‐parameter logistic curve fitting equation.
The vendors for target cDNA are listed in supplemental Table 1. […]

Solubility at stomach pH = format: physicochemical; details: at the pH of the stomach
[1] = Unbound fraction in plasma by equilibrium dialysis; format: in vitro ADME; details: mouse plasma
Procedure: Male CD‐1 male mice were orally dosed with 1, 3, or 10 mg/kg API of LY3358966 SDD dissolved in water or were IV dosed with 1 mg/kg LY3358966 formulated in 25% dimethylacetamide, 15% ethanol, 10% propylene glycol, 25% 2‐pyrrolidone, and 25% water. Each dose group contained six animals. Three animals were bled at 0.25, 0.5, 1, 2, 4, 8, 12, and 24 h, with each animal being bled at alternate time points. Plasma drug levels were determined by HPLC/MS. The unbound fraction of LY3358966 in plasma was determined with equilibrium dialysis and LC‐MS/MS.

CC1(C)CN(C(=O)NCCCCO)CCN1Cc1cccc(C(=O)Nc2sc3c(c2C(=O)Nc2cc(F)c(CCc4ccc(C(=O)O)cc4)c(F)c2)CCCC3)c1 [LY3358966, 4‐[2‐[2,6‐difluoro‐4‐[[2‐[[3‐[[4‐(4‐hydroxybutylcarbamoyl)‐2,2‐dimethyl‐piperazin‐1‐yl]methyl]benzoyl]amino]‐4,5,6,7‐tetrahydrobenzothiophene‐3‐carbonyl]amino]phenyl]ethyl]benzoic acid]
IC50 (rat NPT2b): 26.8 nM
solubility (Solubility at stomach pH): minimal solubility
fraction unbound [1]: 0.005
